Consider two compounds from ChEMBL document CHEMBL1150060, “Potent inhibitors of histamine release, two novel triterpenoids from the Okinawan marine sponge Penares incrustans” (J Nat Prod, 1992).

SMILES strings stand for the structures. pIC50: −log10 of the molar value.

Series [1] in a line: Cytotoxicity against rat peritoneal mast cells assessed as cell viability by trypan blue exclusion assay. The class given is cell-based. The following applies: read-out: Activity.
In another series the test system is Mast cell. In words: Inhibition of anti-IgE-induced histamine release in rat peritoneal mast cells. In kind it is functional, cell-based.

As usually defined, the pIC50 is the negative decadic logarithm of the IC50, by convention in mol/L. Regarding `CC(=O)O[C@H]1CC[C@]2(C)C3=C(CC[C@H]2C1(C)C)[C@]1(C(=O)O)CC[C@H]([C@H](C)CCC=C(C)C)[C@@]1(C)CC3` [ACETYLPENASTEROL], the viability in series [1] worked out at 97%. Also, in the series with Mast cell, the Activity entry was “Dose-dependent effect” and the negative logarithm of the IC50 (pIC50) is 5.00.

As for `CC(C)=CCC[C@@H](C)[C@H]1CC[C@@]2(C(=O)O)C3=C(CC[C@]12C)[C@@]1(C)CCC(=O)C(C)(C)[C@@H]1CC3` [PENASTERONE], in series [1], the viability came out at 97%. Moreover, in the series with Mast cell, the Activity entry is “Dose-dependent effect” and the negative-log IC50 (pIC50) was 5.82.
